A word on the IC50: it is the concentration needed to halve the response being measured.

Data set [1] has as its system A431. Put plainly: A431 CellTiter-Glo. Format: cell-based. Particulars: Homo sapiens, A-431; 72 h compound incubation; read-out: A431 CTG IC50. In outline: (§1)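 Luminescence from cellular ATP serves as the viability signal after cells are treated with compound dilutions for 72 h at 37° C. IC50 is derived by curve fitting, with DMSO-treated and 10 μM Staurosporine-treated wells defining the assay window.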
A general note: Cellular ATP, detected with luciferase, serves as a proxy for viable cell number.

Data set [2] deals with Her2 Exon 20 INSYVMA Ba/F3 (Homo sapiens, UniProt P04626, DUP772-775, cells depend on it). In words: Her2 Exon 20 INSYVMA Ba/F3 CellTiter-Glo. Format: cell-based. The conditions noted are these: CellTiter-Glo, 72 h, read-out: Her2 Exon 20 INSYVMA Ba/F3 CTG IC50. The method in brief: (§2)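 Ba/F3 cells were seeded, left 24 h at 37 °C/5% CO2, then exposed to compound dilutions in DMSO for 72 h. Viability was read as ATP luminescence (CellTiter-Glo) and IC50 fitted from dose–response curves; DMSO and 10 μM staurosporine defined the controls, and plates needed Z′ ≥0.5.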
Chain of Her2 Exon 20 INSYVMA Ba/F3 (P04626 with tags, fused parts or gaps DUP772-775): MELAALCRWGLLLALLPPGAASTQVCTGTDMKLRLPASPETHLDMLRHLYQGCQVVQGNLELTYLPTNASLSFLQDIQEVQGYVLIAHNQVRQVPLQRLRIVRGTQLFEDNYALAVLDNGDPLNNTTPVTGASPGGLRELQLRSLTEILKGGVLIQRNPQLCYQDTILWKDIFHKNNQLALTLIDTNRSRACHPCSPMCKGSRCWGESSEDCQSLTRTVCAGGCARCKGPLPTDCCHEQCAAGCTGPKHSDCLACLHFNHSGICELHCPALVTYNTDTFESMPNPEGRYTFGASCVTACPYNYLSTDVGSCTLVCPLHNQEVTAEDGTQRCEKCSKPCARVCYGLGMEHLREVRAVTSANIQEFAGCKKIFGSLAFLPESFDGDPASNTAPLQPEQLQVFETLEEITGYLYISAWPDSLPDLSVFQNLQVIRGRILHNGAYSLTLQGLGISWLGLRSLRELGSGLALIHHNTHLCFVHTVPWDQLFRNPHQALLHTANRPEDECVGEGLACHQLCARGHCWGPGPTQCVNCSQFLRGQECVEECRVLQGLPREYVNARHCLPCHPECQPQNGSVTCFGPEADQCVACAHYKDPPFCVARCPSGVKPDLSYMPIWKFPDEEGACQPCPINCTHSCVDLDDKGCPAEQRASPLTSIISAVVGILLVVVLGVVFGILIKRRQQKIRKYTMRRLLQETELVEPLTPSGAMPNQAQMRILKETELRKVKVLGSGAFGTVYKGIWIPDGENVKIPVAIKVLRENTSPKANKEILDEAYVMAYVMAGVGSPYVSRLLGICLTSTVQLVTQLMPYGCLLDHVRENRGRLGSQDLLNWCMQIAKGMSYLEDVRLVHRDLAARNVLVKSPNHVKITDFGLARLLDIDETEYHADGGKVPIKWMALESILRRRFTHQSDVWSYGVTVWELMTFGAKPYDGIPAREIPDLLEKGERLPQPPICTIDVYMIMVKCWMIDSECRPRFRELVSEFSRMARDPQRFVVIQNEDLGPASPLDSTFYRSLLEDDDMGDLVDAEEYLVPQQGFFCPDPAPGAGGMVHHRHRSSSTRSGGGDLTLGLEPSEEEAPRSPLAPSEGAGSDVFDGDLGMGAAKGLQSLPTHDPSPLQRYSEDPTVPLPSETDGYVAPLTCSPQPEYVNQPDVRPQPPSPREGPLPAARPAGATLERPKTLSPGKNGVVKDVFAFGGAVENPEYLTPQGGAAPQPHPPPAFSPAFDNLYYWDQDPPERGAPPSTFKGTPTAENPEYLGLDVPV

The subject of data set [3] is H1975. In words: H1975 CellTiter-Glo. Type of data set: cell-based. The conditions noted are these: Homo sapiens, NCI-H1975; 72 h compound incubation; read-out: H1975 CTG IC50. The method in brief: as §1
Data set [4] in a line: Metabolic stability in mouse liver microsomes without cofactor NADPH. Particulars: 3 μM test compound, mouse liver microsomes, without NADPH, 50 min, 37° C., LC-MS/MS. Format: in vitro ADME. In outline:
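Test compound (3 μM) was incubated with mouse liver microsomes without NADPH at 37° C. Depletion was followed by LC-MS/MS over time up to 50 min.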
In general terms: Liver microsomes are vesicles of endoplasmic reticulum, rich in cytochrome P450 enzymes.

Data set [5] concerns the target EGFR T790ML858R (Homo sapiens, UniProt P00533, L858R/T790M). In words: EGFR T790ML858R Lance assay. Type of data set: biochemical. The procedure:
(§3) Inhibition is indicated as […] [nM] (“−”=not measured). Compounds having an activity designated as “A” provided an IC50≤100 nM; compounds having an activity designated as “B” provided an 100 nM<IC50≤500 nM; compounds having an activity designated as “C” provided an 500 nM<IC50≤1000 nM; compounds having an activity designated as “D” provided an 1000 nM<IC50≤100000 nM; and compounds having an activity designated as “E” provided an IC50>10000 nM.

Data set [6] deals with EGFR wt (Homo sapiens, UniProt P00533). Put plainly: EGFR wt Lance assay. Format: biochemical. The procedure: as §3
For data set [7], the target named is T1, HER2 INS YVMA (Homo sapiens, UniProt P04626, INS775YVMA).
T1 construct: purchased DPF
T1 sequence (P04626 with tags, fused parts or gaps INS775YVMA): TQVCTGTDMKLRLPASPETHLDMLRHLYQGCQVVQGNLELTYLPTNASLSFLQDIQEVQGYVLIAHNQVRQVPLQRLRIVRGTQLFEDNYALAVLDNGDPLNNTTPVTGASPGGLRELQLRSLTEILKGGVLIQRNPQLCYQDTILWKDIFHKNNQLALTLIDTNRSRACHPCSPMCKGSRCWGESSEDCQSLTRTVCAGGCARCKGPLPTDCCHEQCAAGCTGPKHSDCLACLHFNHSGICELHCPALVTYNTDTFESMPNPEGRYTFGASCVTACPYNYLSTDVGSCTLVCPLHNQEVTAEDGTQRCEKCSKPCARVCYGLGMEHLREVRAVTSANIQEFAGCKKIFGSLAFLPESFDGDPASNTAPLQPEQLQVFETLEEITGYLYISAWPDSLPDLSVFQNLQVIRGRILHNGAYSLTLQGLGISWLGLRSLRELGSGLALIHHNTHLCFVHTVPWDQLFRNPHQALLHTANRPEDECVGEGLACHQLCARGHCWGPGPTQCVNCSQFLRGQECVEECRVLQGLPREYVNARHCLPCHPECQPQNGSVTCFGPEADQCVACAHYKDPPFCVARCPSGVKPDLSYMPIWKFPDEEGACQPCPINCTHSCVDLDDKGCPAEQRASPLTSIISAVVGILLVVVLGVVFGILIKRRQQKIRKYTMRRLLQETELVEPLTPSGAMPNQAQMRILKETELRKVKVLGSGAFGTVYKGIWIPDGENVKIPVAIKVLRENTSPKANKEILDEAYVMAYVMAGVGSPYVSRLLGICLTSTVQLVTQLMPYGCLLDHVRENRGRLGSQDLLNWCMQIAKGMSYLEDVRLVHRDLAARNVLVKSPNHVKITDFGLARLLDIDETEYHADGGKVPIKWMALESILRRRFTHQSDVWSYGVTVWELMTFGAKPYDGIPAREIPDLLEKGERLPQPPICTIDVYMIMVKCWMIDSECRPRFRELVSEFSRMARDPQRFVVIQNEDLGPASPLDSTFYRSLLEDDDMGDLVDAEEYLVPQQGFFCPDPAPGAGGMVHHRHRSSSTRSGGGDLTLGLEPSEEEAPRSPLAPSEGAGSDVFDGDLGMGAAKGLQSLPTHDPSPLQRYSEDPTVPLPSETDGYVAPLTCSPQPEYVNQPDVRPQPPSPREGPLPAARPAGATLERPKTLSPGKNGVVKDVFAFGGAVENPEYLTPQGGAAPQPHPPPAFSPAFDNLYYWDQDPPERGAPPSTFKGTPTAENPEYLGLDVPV
Put plainly: Lance Kinase Activity Assay, HER2 INS YVMA (Her2 Exon 20 INSYVMA Lance). Type of data set: biochemical. Particulars: biochemical Lance assay. In outline: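 Kinase phosphorylates a ULight-labelled peptide substrate; Eu anti-phospho antibody gives TR-FRET (ex 340 nm, em 665/615 nm). Compounds in 1:3 serial dilution over 8 steps, reaction started with ATP, 1 h at room temperature, stopped with EDTA-containing detection mix for 1 h. IC50 from sigmoidal dose-response curves.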

Data set [8] has as its target EGFR Exon 20 INSNPH Ba/F3 (Homo sapiens, UniProt P00533, DUP771-773, cells depend on it). In words: EGFR Exon 20 INSNPH Ba/F3 CellTiter-Glo. Type of data set: cell-based. The conditions noted are these: CellTiter-Glo, 72 h, read-out: EGFR Exon 20 INSNPH Ba/F3 CTG IC50. In outline:
as §2

Data set [9] deals with H1781. In words: H1781 CellTiter-Glo. The conditions noted are these: NCI-H1781; 72 h compound incubation; read-out: H1781 CTG IC50. Format: cell-based. How it is done:
2. Measurement of Cellular Activity
The CellTiter-Glo Luminescent Cell Viability Assay (Promega) is a homogeneous method of determining the number of viable cells in culture. It is based on quantification of ATP, indicating the presence of metabolically active cells. Cells are seeded on day 1 at cell numbers that assure assay linearity and optimal signal intensity. After incubation for 24 h in humidified chambers at 37° C. and 5% CO2, compounds in DMSO are added at different concentrations. Cells are further incubated for 72 h at 37° C. and 5% CO2. Cells treated with the compound vehicle DMSO are used as positive controls and cells treated with 10 μM Staurosporine serve as negative controls. At day 5 the CellTiter Glo Reagent is prepared according to the instructions of the kit (Promega Inc.): Reagent is mixed 1:1 with cell culture medium. Thereon, mixture and assay plates are equilibrated at room temperature for 20 min. Equal volumes of the reagent-medium-mixture is added to the volume of culture medium present in each well. The plates are mixed at ˜200 rpm for 2 minutes on an orbital shaker. The microplates are then incubated at room temperature for 10 minutes for stabilization of the luminescent signal. Following incubation the luminescence is recorded on a Victor microplate reader (Perkin Elmer) using a 200 ms integration time. The data is then analyzed with Excel using the XLFIT Plugin (dose response Fit 205) for IC50-determination. As quality control the Z′-factor is calculated from 16 positive and negative control values. Only assay results showing a Z′-factor ≥0.5 are used for further analysis.
as §3

SMILES strings stand for the structures.

Chain of EGFR T790ML858R (P00533 25-1210 T790M/L858R): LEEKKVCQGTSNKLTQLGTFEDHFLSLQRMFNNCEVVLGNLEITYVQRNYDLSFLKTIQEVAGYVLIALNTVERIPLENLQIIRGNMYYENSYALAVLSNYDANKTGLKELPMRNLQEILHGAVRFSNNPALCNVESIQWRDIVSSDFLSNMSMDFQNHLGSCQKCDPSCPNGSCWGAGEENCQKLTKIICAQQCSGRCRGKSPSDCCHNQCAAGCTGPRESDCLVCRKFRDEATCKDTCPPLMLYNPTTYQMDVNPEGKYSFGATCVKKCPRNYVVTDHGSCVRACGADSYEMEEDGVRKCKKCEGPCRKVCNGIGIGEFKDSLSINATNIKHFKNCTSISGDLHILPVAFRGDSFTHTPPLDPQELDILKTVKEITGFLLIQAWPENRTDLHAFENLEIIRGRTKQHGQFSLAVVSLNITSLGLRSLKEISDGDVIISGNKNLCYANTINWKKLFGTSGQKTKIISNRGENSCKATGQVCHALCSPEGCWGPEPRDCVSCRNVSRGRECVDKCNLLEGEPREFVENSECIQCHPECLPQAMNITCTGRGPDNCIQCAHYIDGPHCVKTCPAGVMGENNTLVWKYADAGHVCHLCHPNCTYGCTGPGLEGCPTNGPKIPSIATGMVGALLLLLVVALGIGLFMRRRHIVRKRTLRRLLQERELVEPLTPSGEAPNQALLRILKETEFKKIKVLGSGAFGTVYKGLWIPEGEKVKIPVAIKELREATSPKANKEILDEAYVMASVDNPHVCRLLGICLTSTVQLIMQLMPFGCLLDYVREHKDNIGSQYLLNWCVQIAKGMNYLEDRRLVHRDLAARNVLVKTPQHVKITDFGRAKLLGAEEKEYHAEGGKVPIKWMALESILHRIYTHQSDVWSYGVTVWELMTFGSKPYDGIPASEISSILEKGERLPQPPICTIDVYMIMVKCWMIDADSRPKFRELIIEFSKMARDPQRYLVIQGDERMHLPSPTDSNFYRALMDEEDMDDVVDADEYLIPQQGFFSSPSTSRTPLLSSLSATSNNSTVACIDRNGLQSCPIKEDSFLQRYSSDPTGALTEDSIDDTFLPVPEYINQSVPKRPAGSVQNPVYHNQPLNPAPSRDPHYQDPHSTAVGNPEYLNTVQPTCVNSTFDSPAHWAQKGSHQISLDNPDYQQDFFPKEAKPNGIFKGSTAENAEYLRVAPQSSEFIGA
Chain of EGFR Exon 20 INSNPH Ba/F3 (P00533 with tags, fused parts or gaps DUP771-773): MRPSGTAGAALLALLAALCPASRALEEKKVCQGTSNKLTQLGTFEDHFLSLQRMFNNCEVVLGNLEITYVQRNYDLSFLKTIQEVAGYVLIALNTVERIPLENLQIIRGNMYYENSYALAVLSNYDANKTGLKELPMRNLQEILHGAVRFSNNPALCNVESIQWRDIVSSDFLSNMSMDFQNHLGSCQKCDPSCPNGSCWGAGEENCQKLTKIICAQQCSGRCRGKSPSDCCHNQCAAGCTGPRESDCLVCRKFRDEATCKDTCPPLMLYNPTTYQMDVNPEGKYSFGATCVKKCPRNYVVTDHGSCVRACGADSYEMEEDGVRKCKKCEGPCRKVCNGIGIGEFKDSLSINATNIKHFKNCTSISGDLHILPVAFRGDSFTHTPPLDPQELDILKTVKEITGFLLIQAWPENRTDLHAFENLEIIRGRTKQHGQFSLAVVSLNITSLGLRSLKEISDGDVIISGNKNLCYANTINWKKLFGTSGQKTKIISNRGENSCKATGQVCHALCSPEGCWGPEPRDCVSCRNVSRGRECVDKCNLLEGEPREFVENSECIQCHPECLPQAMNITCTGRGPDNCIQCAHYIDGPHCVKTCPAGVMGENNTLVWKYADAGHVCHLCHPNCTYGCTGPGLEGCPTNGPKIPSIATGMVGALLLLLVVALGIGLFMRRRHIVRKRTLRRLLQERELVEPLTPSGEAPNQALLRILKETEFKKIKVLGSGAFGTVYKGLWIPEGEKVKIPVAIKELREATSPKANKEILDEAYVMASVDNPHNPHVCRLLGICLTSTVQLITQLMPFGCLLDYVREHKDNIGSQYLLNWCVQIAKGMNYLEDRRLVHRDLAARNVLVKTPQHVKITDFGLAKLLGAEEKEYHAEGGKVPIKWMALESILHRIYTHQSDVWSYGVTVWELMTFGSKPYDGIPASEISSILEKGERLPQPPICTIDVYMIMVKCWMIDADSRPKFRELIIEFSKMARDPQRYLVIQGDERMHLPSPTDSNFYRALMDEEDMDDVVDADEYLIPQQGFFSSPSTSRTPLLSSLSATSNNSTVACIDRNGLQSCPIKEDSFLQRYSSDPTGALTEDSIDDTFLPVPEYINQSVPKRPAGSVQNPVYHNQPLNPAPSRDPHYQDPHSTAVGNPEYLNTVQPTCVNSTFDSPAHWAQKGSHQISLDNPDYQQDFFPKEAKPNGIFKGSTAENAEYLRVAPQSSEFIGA

With `C=CC(=O)Nc1cc(-c2c(-c3cccc(OCCCN4CCN(CC)CC4)c3)[nH]c3nccc(Cl)c23)ccc1C` [Example 25, N-(5-(4-chloro-2-(3-(3-(4-ethylpiperazin-1-yl)propoxy)phenyl)-1H-pyrrolo[2,3-b]pyridin-3-yl)-2-methylphenyl)acrylamide], the 50% inhibitory concentration (IC50) in data set [1] was 100 to 500 nM; in data set [3], not above 100 nM; in [5], not above 100 nM; in [6] it was not above 100 nM; in [7], not above 100 nM; in data set [9], 500 to 1000 nM. The GI50 in [2] and in data set [8] was 100 to 500 nM each time. In addition, the “Stability in presence of mouse liver microsomes without cofactor NADPH [% remaining after 50 min]” value in [4] is reported as more than 99 % remaining after 50 min.
In the case of `C=CC(=O)N1CCc2ccc(-c3c(-c4ccc(N5CCN(C(C)=O)CC5)cc4)[nH]c4nccc(Cl)c34)cc21` [Example 58, 1-(6-(2-(4-(4-acetylpiperazin-1-yl)phenyl)-4-chloro-1H-pyrrolo[2,3-b]pyridin-3-yl)indolin-1-yl)prop-2-en-1-one], the IC50 is 1000 to 100000 nM in data set [1]; 100 to 500 nM in [3]; not above 100 nM in data set [5]; not above 100 nM in data set [6]; not above 100 nM in [7]; 1000 to 100000 nM in [9]. Also, the GI50 in [2] and in data set [8] was 1000 to 10000 nM each time. The “Stability in presence of mouse liver microsomes without cofactor NADPH [% remaining after 50 min]” value in data set [4] is on record as more than 99 % remaining after 50 min.
`C=CC(=O)Nc1cc(-c2c(-c3ccc(OCCCN(C)C)cc3)[nH]c3nccc(Cl)c23)ccc1C` [Example 13, N-(5-(4-chloro-2-(4-(3-(dimethylamino)propoxy)phenyl)-1H-pyrrolo[2,3-b]pyridin-3-yl)-2-methylphenyl)acrylamide]: the IC50 in data set [1] is 100 to 500 nM; in data set [3], not above 100 nM; in data set [5] it was not above 100 nM; in [6], not above 100 nM; in [7] it was not above 100 nM; in data set [9] it was 100 to 500 nM. Further, the GI50 in data set [2] and in [8] was 100 to 500 nM each time. In addition, in [4], the “Stability in presence of mouse liver microsomes without cofactor NADPH [% remaining after 50 min]” value was 95 % remaining after 50 min.
In the case of `C=CC(=O)N1CCCc2ccc(-c3c(-c4ccc(N5CCN(C)CC5)cc4)[nH]c4nccc(Cl)c34)cc21` [Example 86, 1-(7-(4-chloro-2-(4-(4-methylpiperazin-1-yl)phenyl)-1H-pyrrolo[2,3-b]pyridin-3-yl)-3,4-dihydroquinolin-1(2H)-yl)prop-2-en-1-one 2,2,2-trifluoroacetate], the IC50 in [1] is 1000 to 100000 nM; in data set [3], 100 to 500 nM; in [5] it was not above 100 nM; in data set [6] it was not above 100 nM; in [7], not above 100 nM; in [9], 1000 to 100000 nM. Besides, the GI50 in data set [2] and in data set [8] was 500 to 1000 nM each time. Further, the “Stability in presence of mouse liver microsomes without cofactor NADPH [% remaining after 50 min]” value in [4] is recorded as more than 99 % remaining after 50 min.
Consider `C=CC(=O)Nc1cc(-c2c(-c3ccc(CN(C)C)cc3)[nH]c3nccc(Cl)c23)ccc1C` [Example 10, N-(5-(4-chloro-2-(4-((dimethylamino)methyl)phenyl)-1H-pyrrolo[2,3-b]pyridin-3-yl)-2-methylphenyl)acrylamide], for which the IC50 was 500 to 1000 nM in data set [1]; not above 100 nM in data set [3]; not above 100 nM in [5]; not above 100 nM in data set [6]; not above 100 nM in [7]; 100 to 500 nM in data set [9]. The GI50 in data set [2] and in data set [8] was not above 100 nM throughout. The “Stability in presence of mouse liver microsomes without cofactor NADPH [% remaining after 50 min]” value in data set [4] was more than 99 % remaining after 50 min.
Regarding `C=CC(=O)Nc1cc(-c2c(-c3ccc(CN4CCN(C)CC4)cc3)[nH]c3nccc(Cl)c23)ccc1C` [Example 1, N-(5-(4-chloro-2-(4-((4-methylpiperazin-1-yl)methyl)phenyl)-1H-pyrrolo[2,3-b]pyridin-3-yl)-2-methylphenyl)acrylamide 2,2,2-trifluoroacetate], the IC50 was 100 to 500 nM in data set [1]; not above 100 nM in [3]; not above 100 nM in data set [5]; not above 100 nM in data set [6]; not above 100 nM in [7]; 100 to 500 nM in [9]. In addition, the GI50 is 100 to 500 nM in data set [2] and not above 100 nM in data set [8]. The “Stability in presence of mouse liver microsomes without cofactor NADPH [% remaining after 50 min]” value in data set [4] is more than 99 % remaining after 50 min.
In the case of `C=CC(=O)Nc1cc(-c2c(-c3cccc(CN4CCN(C)CC4)c3)[nH]c3nccc(OC)c23)ccc1C` [Example 76, N-(5-(4-methoxy-2-(3-((4-methylpiperazin-1-yl)methyl)phenyl)-1H-pyrrolo[2,3-b]pyridin-3-yl)-2-methylphenyl)acrylamide], the IC50 in data set [1] was 500 to 1000 nM; in data set [3], not above 100 nM; in [5], not above 100 nM; in [6], not above 100 nM; in data set [7] it was not above 100 nM; in [9] it was 500 to 1000 nM. The GI50 in [2] and in [8] was 100 to 500 nM in each case. For the same compound, in [4], the “Stability in presence of mouse liver microsomes without cofactor NADPH [% remaining after 50 min]” value was more than 99 % remaining after 50 min.
Consider `C=CC(=O)Nc1cc(-c2c(-c3ccc(CN4CCOCC4)cc3)[nH]c3nccc(Cl)c23)ccc1C` [Example 5, N-(5-(4-chloro-2-(4-(morpholinomethyl)phenyl)-1H-pyrrolo[2,3-b]pyridin-3-yl)-2-methylphenyl)acrylamide], for which the IC50 is more than 10000 nM in data set [1]; not above 100 nM in data set [3]; not above 100 nM in data set [5]; not above 100 nM in data set [6]; not above 100 nM in data set [7]; more than 10000 nM in [9]. The GI50 in [2] and in [8] was 100 to 500 nM each time. For the same compound, the “Stability in presence of mouse liver microsomes without cofactor NADPH [% remaining after 50 min]” value in data set [4] is on record as more than 99 % remaining after 50 min.
Turning to `C=CC(=O)N1CCc2ccc(-c3c(-c4ccc(CN(C)C)cc4)[nH]c4nccc(Cl)c34)cc21` [Example 61, 1-(6-(4-chloro-2-(4-((dimethylamino)methyl)phenyl)-1H-pyrrolo[2,3-b]pyridin-3-yl)indolin-1-yl)prop-2-en-1-one], the IC50 in data set [1] is 100 to 500 nM; in data set [3], not above 100 nM; in [5], not above 100 nM; in data set [6], not above 100 nM; in data set [7] it was not above 100 nM; in data set [9], 500 to 1000 nM. Moreover, the GI50 in data set [2] and in [8] was 100 to 500 nM throughout. Besides, the “Stability in presence of mouse liver microsomes without cofactor NADPH [% remaining after 50 min]” value in data set [4] was more than 99 % remaining after 50 min.
